Measured values reported in paper PMC11589570, “Critical assessment of LC3/GABARAP ligands used for degrader development and ligandability of LC3/GABARAP binding pockets” (Nature Communications, 2024).
Values joined by “and” are separate entries in the source; they are usually repeats but may differ in a detail not shown here. Identical values can stand only once. Like-named read-outs stand apart in the source and are kept apart here.

What was measured:
LC3B [1] = target: T1, LC3B (Homo sapiens, UniProt Q9GZQ8); assay: FP assay with 10O5- and 8F20-based dye-linked tracers 16 and 17; conditions: LC3B; compound 3 for tracer 17, compound 4 for tracer 16
Description: The only experimental difference in our FP assay setup was the addition of 0.05% Tween-20, which is routinely used[27] to suppress unspecific binding of compounds to proteins.
Fluorescence polarization assay utilizing tracers 16 and 17 for interaction studies with LC3A
(upper panels) and LC3B (lower panels). The left panels depict protein titration measurements
detergent in the buffer to suppress unspecific binding. Middle panels depict displacement
Data were collected in technical
triplicates with error bars expressing the SD (n=3).

LC3B [2] = target: T1, LC3B; conditions: LC3B:ligand molar ratio 1:2
LC3A = LC3A (Homo sapiens, UniProt Q9H492); assay: FP assay with Cy5-labelled p62 LIR tracer (protein titration and tracer displacement); assay type: binding; conditions: LC3A

## Cc1ccc(C(=O)N(CCCN)[C@@H](c2nc3cc(Cl)ccc3c(=O)n2Cc2ccccc2)C(C)C)cc1 [compound 3, (R)-N-(3-aminopropyl)-N-(1-(3-benzyl-7-chloro-4-oxo-3,4-dihydroquinazolin-2-yl)−2-methylpropyl)−4-methylbenzamide]
LC3B [1]
  displacement of dye-linked tracer by parent compound: no displacement
LC3B [2]; LC3B residue A75
  CSP: 0.00171 ppm
LC3B [2]; LC3B residue A78
  CSP: 0.000906 ppm
LC3B [2]; LC3B residue A114
  CSP: 0.00141 ppm
LC3B [2]; LC3B residue D19
  CSP: 0.000707 ppm
LC3B [2]; LC3B residue D48
  CSP: 0.010 ppm
LC3B [2]; LC3B residue D56
  CSP: 0.00434 ppm
LC3B [2]; LC3B residue D104
  CSP: 0.002 ppm
LC3B [2]; LC3B residue D106
  CSP: 0.005 ppm
LC3B [2]; LC3B residue E14
  CSP: 0.00152 ppm
LC3B [2]; LC3B residue E18
  CSP: 0.003 ppm
LC3B [2]; LC3B residue E25
  CSP: 0.00212 ppm
LC3B [2]; LC3B residue E36
  CSP: 0.00158 ppm
LC3B [2]; LC3B residue E41
  CSP: 0.0011 ppm
LC3B [2]; LC3B residue E62
  CSP: 0.00213 ppm
LC3B [2]; LC3B residue E97
  CSP: 0.005 ppm
LC3B [2]; LC3B residue E100
  CSP: 0.004 ppm
LC3B [2]; LC3B residue E102
  CSP: 0.000721 ppm
LC3B [2]; LC3B residue E105
  CSP: 0.00232 ppm
LC3B [2]; LC3B residue E117
  CSP: 0.00224 ppm
LC3B [2]; LC3B residue F07
  CSP: 0.00141 ppm
LC3B [2]; LC3B residue F13
  CSP: 0.000721 ppm
LC3B [2]; LC3B residue F52
  CSP: 0.011 ppm
LC3B [2]; LC3B residue F108
  CSP: 0.006 ppm
LC3B [2]; LC3B residue F119
  CSP: 0.00255 ppm
LC3B [2]; LC3B residue G40, estimated
  CSP: 0.002 ppm
LC3B [2]; LC3B residue G107
  CSP: 0.002 ppm
LC3B [2]; LC3B residue H27
  CSP: 0.00453 ppm
LC3B [2]; LC3B residue H57
  CSP: 0.00237 ppm
LC3B [2]; LC3B residue I23
  CSP: 0.00158 ppm
LC3B [2]; LC3B residue I31
  CSP: 0.00281 ppm
LC3B [2]; LC3B residue I34
  CSP: 0.00571 ppm
LC3B [2]; LC3B residue I35
  CSP: 0.00158 ppm
LC3B [2]; LC3B residue I64
  CSP: 0.00474 ppm
LC3B [2]; LC3B residue I66
  CSP: 0.000721 ppm
LC3B [2]; LC3B residue I67
  CSP: 0.003 ppm
LC3B [2]; LC3B residue K08
  CSP: 0.00364 ppm
LC3B [2]; LC3B residue K30
  CSP: 0.000762 ppm
LC3B [2]; LC3B residue K39
  CSP: 0.00212 ppm
LC3B [2]; LC3B residue K42
  CSP: 0.00255 ppm
LC3B [2]; LC3B residue K49
  CSP: 0.00665 ppm
LC3B [2]; LC3B residue K51
  CSP: 0.00356 ppm
LC3B [2]; LC3B residue K65
  CSP: 0.00216 ppm
LC3B [2]; LC3B residue K103
  CSP: 0.00165 ppm
LC3B [2]; LC3B residue L22
  CSP: 0.002 ppm
LC3B [2]; LC3B residue L44
  CSP: 0.006 ppm
LC3B [2]; LC3B residue L47
  CSP: 0.009 ppm
LC3B [2]; LC3B residue L53
  CSP: 0.007 ppm
LC3B [2]; LC3B residue L63
  CSP: 0.004 ppm
LC3B [2]; LC3B residue L71
  CSP: 0.000566 ppm
LC3B [2]; LC3B residue L73
  CSP: 0.000849 ppm
LC3B [2]; LC3B residue L109
  CSP: 0.00144 ppm
LC3B [2]; LC3B residue M01, estimated
  CSP: 0.002 ppm
LC3B [2]; LC3B residue M60
  CSP: 0.00216 ppm
LC3B [2]; LC3B residue M111
  CSP: 0.00255 ppm
LC3B [2]; LC3B residue N59
  CSP: 0.009 ppm
LC3B [2]; LC3B residue N74
  CSP: 0.00173 ppm
LC3B [2]; LC3B residue N76
  CSP: 0.00171 ppm
LC3B [2]; LC3B residue P02, estimated
  CSP: 0.002 ppm
LC3B [2]; LC3B residue P28, estimated
  CSP: 0.005 ppm
LC3B [2]; LC3B residue P32, estimated
  CSP: 0.003 ppm
LC3B [2]; LC3B residue P45, estimated
  CSP: 0.005 ppm
LC3B [2]; LC3B residue P55, estimated
  CSP: 0.006 ppm
LC3B [2]; LC3B residue Q09
  CSP: 0.00173 ppm
LC3B [2]; LC3B residue Q15
  CSP: 0.00158 ppm
LC3B [2]; LC3B residue Q26
  CSP: 0.003 ppm
LC3B [2]; LC3B residue Q43
  CSP: 0.00158 ppm
LC3B [2]; LC3B residue Q72
  CSP: 0.00243 ppm
LC3B [2]; LC3B residue Q77
  CSP: 0.0011 ppm
LC3B [2]; LC3B residue Q116
  CSP: 0.00181 ppm
LC3B [2]; LC3B residue R10
  CSP: 0.00165 ppm
LC3B [2]; LC3B residue R11
  CSP: 0.0024 ppm
LC3B [2]; LC3B residue R16
  CSP: 0.00181 ppm
LC3B [2]; LC3B residue R21
  CSP: 0.002 ppm
LC3B [2]; LC3B residue R24
  CSP: 0.000424 ppm
LC3B [2]; LC3B residue R37
  CSP: 0.00181 ppm
LC3B [2]; LC3B residue R68
  CSP: 0.00643 ppm
LC3B [2]; LC3B residue R69
  CSP: 0.00362 ppm
LC3B [2]; LC3B residue R70
  CSP: 0.00566 ppm
LC3B [2]; LC3B residue S03, estimated
  CSP: 0.002 ppm
LC3B [2]; LC3B residue S61
  CSP: 0.00376 ppm
LC3B [2]; LC3B residue S96
  CSP: 0.004 ppm
LC3B [2]; LC3B residue S101
  CSP: 0.00148 ppm
LC3B [2]; LC3B residue S115
  CSP: 0.00122 ppm
LC3B [2]; LC3B residue T06
  CSP: 0.00255 ppm
LC3B [2]; LC3B residue T12
  CSP: 0.006 ppm
LC3B [2]; LC3B residue T29, estimated
  CSP: 0.002 ppm
LC3B [2]; LC3B residue T50
  CSP: 0.008 ppm
LC3B [2]; LC3B residue T118
  CSP: 0.00152 ppm
LC3B [2]; LC3B residue V17
  CSP: 0.0011 ppm
LC3B [2]; LC3B residue V20
  CSP: 0.00281 ppm
LC3B [2]; LC3B residue V33
  CSP: 0.00472 ppm
LC3B [2]; LC3B residue V46
  CSP: 0.00449 ppm
LC3B [2]; LC3B residue V54
  CSP: 0.009 ppm
LC3B [2]; LC3B residue V58
  CSP: 0.00542 ppm
LC3B [2]; LC3B residue V98
  CSP: 0.00173 ppm
LC3B [2]; LC3B residue V112
  CSP: 0.00638 ppm
LC3B [2]; LC3B residue Y38
  CSP: 0.00165 ppm
LC3B [2]; LC3B residue Y99
  CSP: 0.00144 ppm
LC3B [2]; LC3B residue Y110
  CSP: 0.00214 ppm
LC3B [2]; LC3B residue Y113
  CSP: 0.00232 ppm
LC3A; log10 concentration [M] -3.82391, listed as 8F20
  normalized FP signal, p62 LIR tracer displacement: 97.3684 and 104.737
LC3A; log10 concentration [M] -4.1549, listed as 8F20
  normalized FP signal, p62 LIR tracer displacement: 102.105 and 103.947
LC3A; log10 concentration [M] -4.60206, listed as 8F20
  normalized FP signal, p62 LIR tracer displacement: 101.053 and 106.053
LC3A; log10 concentration [M] -5, listed as 8F20
  normalized FP signal, p62 LIR tracer displacement: 99.7368 and 100.789
LC3A; log10 concentration [M] -5.30103, listed as 8F20
  normalized FP signal, p62 LIR tracer displacement: 102.105 and 98.4211
LC3A; log10 concentration [M] -5.69897, listed as 8F20
  normalized FP signal, p62 LIR tracer displacement: 97.6316 and 96.0526
LC3A; log10 concentration [M] -6.22185, listed as 8F20
  normalized FP signal, p62 LIR tracer displacement: 102.632 and 94.2105
LC3A; log10 concentration [M] -6.69897
  normalized FP signal, p62 LIR tracer displacement: 101.053
LC3A; log10 concentration [M] -6.69897, listed as 8F20
  normalized FP signal, p62 LIR tracer displacement: 99.7368
LC3A; log10 concentration [M] -7.30103, listed as 8F20
  normalized FP signal, p62 LIR tracer displacement: 103.947 and 101.316
LC3A; log10 concentration [M] -7.79588
  normalized FP signal, p62 LIR tracer displacement: 98.4211
LC3A; log10 concentration [M] -7.79588, listed as 8F20
  normalized FP signal, p62 LIR tracer displacement: 93.9474
LC3A; log10 concentration [M] -8.08092
  normalized FP signal, p62 LIR tracer displacement: 102.105
LC3A; log10 concentration [M] -8.08092, listed as 8F20
  normalized FP signal, p62 LIR tracer displacement: 93.9474
